Calls of active or inactive are those of the source. The rule behind the calls is not given here.
Columns and labels:
[1] = Toxicity in Drosophila melanogaster Oregon R-positive assessed as reduction in eclosed flies at 10 uM measured for 15 days relative to control; design: scale not given: the % may be the effect or the level left; settings: 360 h, time 15 day
Mus musculus [2] = experiment: Neuroprotective activity against scopolamine-induced Swiss albino mouse model assessed as upregulation of MMP9 mRNA level at 0.3 to 0.5 mg/kg, po measured after 6 days by RT-PCR analysis; assay type: functional, organism-based; settings: dose 0.3-0.5 mg/kg, time 6.0 day
Acetylcholinesterase [3] = molecular target: T1, Acetylcholinesterase (Homo sapiens, UniProt P22303); experiment: Displacement of propidium iodide from human AChE PAS assessed as reduction in fluorescence intensity at 5 uM incubated for 6 hrs by fluorescence based analysis relative to control; design: scale not given: the % may be the effect or the level left
[4] = Toxicity in Drosophila melanogaster Oregon R-positive assessed as reduction in eclosed flies at 20 uM measured for 15 days relative to control; design: scale not given: the % may be the effect or the level left; settings: 360 h, time 15 day
PC-12 [5] = experiment: Induction of apoptosis in rat PC-12 cells assessed as viable cells at 20 uM incubated for 24 hrs by Annexin V/PI staining based flow cytometry analysis (reference value: 82.8%); assay type: functional; settings: read-out: Activity
Drosophila melanogaster [6] = experiment: Anti-alzheimer activity in ey-GAL4 driven UAS-amyloid beta (1 to 42) induced Drosophila melanogaster Oregon R-positive assessed as severe eye phenotype at 100 uM by Stereo zoom microscopic imaging analysis relative to control; assay type: functional
Mus musculus [7] = experiment: Neuroprotective activity against scopolamine-induced Swiss albino mouse model assessed as increase in CREB1 mRNA level at 0.3 to 0.5 mg/kg, po measured after 6 days by RT-PCR analysis; assay type: functional, organism-based; settings: dose 0.3-0.5 mg/kg, time 6.0 day
Drosophila melanogaster [8] = experiment: Anti-alzheimer activity in ey-GAL4 driven UAS-amyloid beta (1 to 42) induced Drosophila melanogaster Oregon R-positive assessed as rescued eye phenotype at 10 uM by Stereo zoom microscopic imaging analysis relative to control; assay type: functional
Mus musculus [9] = experiment: Antialzheimer activity in scopolamine-induced Swiss albino mouse model assessed as improvement in memory retention by measuring time spent in platform quadrant at 0.3 to 0.5 mg/kg, po preincubated with compound for 30 mins followed by scopolamine induction and measured after 5 days by Morris water maze test; assay type: functional, organism-based; settings: dose 0.3-0.5 mg/kg, time 7230.0 min
[10] = Acute toxicity in Swiss albino mouse assessed as abnormal behavior at 175 mg/kg, po administered for 14 days; assay type: organism-based; settings: in vivo, 336 h, time 14 day
PC-12 [11] = experiment: Induction of apoptosis in rat PC-12 cells assessed as viable cells at 2.5 uM incubated for 24 hrs by Annexin V/PI staining based flow cytometry analysis (reference value: 82.8%); assay type: functional; settings: read-out: Activity
Drosophila melanogaster [12] = experiment: Anti-alzheimer activity in ey-GAL4 driven UAS-amyloid beta (1 to 42) induced Drosophila melanogaster Oregon R-positive assessed as rescued eye phenotype at 40 uM by Stereo zoom microscopic imaging analysis relative to control; assay type: functional
Mus musculus [13] = experiment: Neuroprotective activity against scopolamine-induced Swiss albino mouse model assessed as effect on GAP43 mRNA level at 0.3 to 0.5 mg/kg, po measured after 6 days by RT-PCR analysis; assay type: functional, organism-based; settings: dose 0.3-0.5 mg/kg, time 6.0 day
Mus musculus [14] = experiment: Neuroprotective activity against scopolamine-induced Swiss albino mouse model assessed as increase in C-FOS mRNA level at 0.3 to 0.5 mg/kg, po measured after 6 days by RT-PCR analysis; assay type: functional, organism-based; settings: dose 0.3-0.5 mg/kg, time 6.0 day
Drosophila melanogaster [15] = experiment: Anti-alzheimer activity in ey-GAL4 driven UAS-amyloid beta (1 to 42) induced Drosophila melanogaster Oregon R-positive assessed as mild eye phenotype at 40 uM by Stereo zoom microscopic imaging analysis relative to control; assay type: functional
PC-12 [16] = experiment: Neuroprotective activity against H2O2-induced oxidative stress in rat PC-12 cells assessed as cell viability at 1 to 20 uM preincubated with compound for 24 hrs and followed by H2O2 induction and measured after 24 hrs by MTT assay; assay type: functional, cell-based; settings: dose 1-20 µM, time 48.0 hrs
[17] = molecular target: Cholinesterase (Equus caballus) (UniProt P81908); experiment: Reversible binding affinity to equine serum BChE using acetylthiocholine iodide as substrate assessed as equilibrium binding constant preincubated for 40 mins by DTNB reagent based Ellman's method
Mus musculus [18] = experiment: Neuroprotective activity against scopolamine-induced Swiss albino mouse model assessed as effect on PSD95 mRNA level at 0.3 to 0.5 mg/kg, po measured after 6 days by RT-PCR analysis; assay type: functional, organism-based; settings: dose 0.3-0.5 mg/kg, time 6.0 day
[19] = Antioxidant activity assessed as DPPH radical scavenging activity at 200 uM incubated for 30 mins relative to control; assay type: functional
Drosophila melanogaster [20] = experiment: Anti-alzheimer activity in ey-GAL4 driven UAS-amyloid beta (1 to 42) induced Drosophila melanogaster Oregon R-positive assessed as severe eye phenotype at 10 to 20 uM by Stereo zoom microscopic imaging analysis relative to control; assay type: functional; settings: dose 10-20 µM
Acetylcholinesterase [21] = molecular target: T1, Acetylcholinesterase; experiment: Reversible binding affinity to human AChE using acetylthiocholine iodide as substrate assessed as binding constant preincubated for 40 mins by DTNB reagent based Ellman's method
[22] = Acute toxicity in Swiss albino mouse assessed as body weight gain at 175 mg/kg, po administered for 14 days; assay type: organism-based; settings: in vivo, 336 h, time 14 day
[23] = Acute toxicity in Swiss albino mouse assessed as convulsion at 175 mg/kg, po administered for 14 days; assay type: organism-based; settings: in vivo, 336 h, time 14 day
Drosophila melanogaster [24] = experiment: Anti-alzheimer activity in ey-GAL4 driven UAS-amyloid beta (1 to 42) induced Drosophila melanogaster Oregon R-positive assessed as severe eye phenotype at 10 uM by Stereo zoom microscopic imaging analysis relative to control; assay type: functional

T1 sequence (P22303 whole entry): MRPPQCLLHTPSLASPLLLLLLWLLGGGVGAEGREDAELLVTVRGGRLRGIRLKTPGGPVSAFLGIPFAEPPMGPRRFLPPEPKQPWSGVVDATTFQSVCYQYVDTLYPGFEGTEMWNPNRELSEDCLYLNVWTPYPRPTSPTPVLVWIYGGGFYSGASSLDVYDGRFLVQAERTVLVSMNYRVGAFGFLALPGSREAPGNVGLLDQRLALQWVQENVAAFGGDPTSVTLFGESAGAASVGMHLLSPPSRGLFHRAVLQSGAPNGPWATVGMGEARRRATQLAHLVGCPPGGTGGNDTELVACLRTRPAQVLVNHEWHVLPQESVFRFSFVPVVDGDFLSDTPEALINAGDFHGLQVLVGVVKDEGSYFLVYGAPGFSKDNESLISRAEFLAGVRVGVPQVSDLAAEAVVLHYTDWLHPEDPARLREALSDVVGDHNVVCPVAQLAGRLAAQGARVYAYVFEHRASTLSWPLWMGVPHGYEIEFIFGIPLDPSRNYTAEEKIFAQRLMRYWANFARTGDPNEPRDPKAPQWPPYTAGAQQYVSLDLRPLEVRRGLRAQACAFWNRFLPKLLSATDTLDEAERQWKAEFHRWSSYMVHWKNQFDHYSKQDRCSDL
Sequence of Cholinesterase (Equus caballus) (P81908 whole entry): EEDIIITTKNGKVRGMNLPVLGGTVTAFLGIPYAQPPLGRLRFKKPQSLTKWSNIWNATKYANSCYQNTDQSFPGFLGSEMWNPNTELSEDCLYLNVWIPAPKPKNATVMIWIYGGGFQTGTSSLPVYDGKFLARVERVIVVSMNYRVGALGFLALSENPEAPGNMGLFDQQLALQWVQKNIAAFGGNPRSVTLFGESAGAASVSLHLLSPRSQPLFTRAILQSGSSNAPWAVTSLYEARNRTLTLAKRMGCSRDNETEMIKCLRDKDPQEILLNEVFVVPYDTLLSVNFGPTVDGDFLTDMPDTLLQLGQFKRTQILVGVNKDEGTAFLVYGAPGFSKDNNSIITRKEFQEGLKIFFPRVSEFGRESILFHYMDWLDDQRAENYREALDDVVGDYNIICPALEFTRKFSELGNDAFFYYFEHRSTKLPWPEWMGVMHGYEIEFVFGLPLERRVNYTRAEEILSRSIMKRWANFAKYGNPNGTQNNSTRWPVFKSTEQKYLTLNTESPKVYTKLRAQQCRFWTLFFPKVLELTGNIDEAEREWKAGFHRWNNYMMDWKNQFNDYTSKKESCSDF

C[C@@H](c1cccc(OC(=O)NCCc2c[nH]c3ccc(Cl)cc23)c1)N(C)C
Activity [1]: 108% | Activity (Mus musculus [2]): Active | Activity (Acetylcholinesterase [3]): 21.9% | Activity [4]: 103% | viability at 20 µM (PC-12 [5]): 81.5% | Activity (Drosophila melanogaster [6]): 26% | Activity (Mus musculus [7]): Active | Activity (Drosophila melanogaster [8]): 43% | Activity (Mus musculus [9]): Active | Activity [10]: Non-toxic | viability at 2.5 µM (PC-12 [11]): 72.2% | Activity (Drosophila melanogaster [12]): 40% | Activity (Mus musculus [13]): Active | Activity (Mus musculus [14]): Active | Activity (Drosophila melanogaster [15]): 43% | Activity (PC-12 [16]): Active | Kb [17]: 0.13 nM | Activity (Mus musculus [18]): Active | Activity [19]: 38.9% | Activity (Drosophila melanogaster [20]): 20% | K (Acetylcholinesterase [21]): 0.041 min⁻¹ | Activity [22]: Non-toxic | Activity [23]: Non-toxic | Activity (Drosophila melanogaster [24]): 20%
